# Measurements as given in ChEMBL document CHEMBL3885881, “DrugMatrix”.
# Species: Rattus norvegicus
# Test: DrugMatrix - Regimen: Daily Repeat
# Type: toxicity, organism-based, Sprague-Dawley
# Parameters: regimen Daily Repeat, gender Male, age 6-8 weeks
# Settings: in vivo, po, route oral GAVAGE, vehicle 100 % WATER; for ABSOLUTE BASOPHIL / ABSOLUTE EOSINOPHIL / ABSOLUTE LYMPHOCYTE / ABSOLUTE MONOCYTE / ABSOLUTE SEGMENTED NEUTROPHIL / BASOPHIL / EOSINOPHIL / ERYTHROCYTE COUNT / HEMATOCRIT / HEMOGLOBIN / LEUKOCYTE COUNT / LYMPHOCYTE / MEAN CORPUSCULAR HEMOGLOBIN / MEAN CORPUSCULAR HEMOGLOBIN CONCENTRATION / MEAN CORPUSCULAR VOLUME / MONOCYTE / NEUTROPHIL / NUCLEATED RED BLOOD CELLS / PLATELET COUNT: tissue Blood; for ALANINE AMINOTRANSFERASE / ALBUMIN / ALKALINE PHOSPHATASE / ASPARTATE AMINOTRANSFERASE / BLOOD UREA NITROGEN / CARBON DIOXIDE / CHLORIDE / CHOLESTEROL / CREATINE PHOSPHOKINASE / CREATININE / GLUCOSE / LACTATE DEHYDROGENASE / LIPASE / PHOSPHORUS / POTASSIUM / SODIUM / TOTAL BILIRUBIN / TOTAL PROTEIN / URIC ACID: tissue Plasma
# [1] = 0 mg/kg, 72 h, dose level Control, time 3 day
# [2] = 0 mg/kg, 120 h, dose level Control, time 5 day
# [3] = 14 mg/kg, 72 h, dose level Low, time 3 day
smiles,measurement,setting,value
C[C@H]1c2cccc(O)c2C(=O)C2=C(O)[C@]3(O)C(=O)C(C(N)=O)=C(O)[C@@H](N(C)C)[C@@H]3[C@@H](O)[C@@H]21.O [DOXYCYCLINE],ABSOLUTE BASOPHIL,[1],0 CELLS/uL
same,ABSOLUTE EOSINOPHIL,[1],86.33 CELLS/uL
same,ABSOLUTE LYMPHOCYTE,[1],12090.17 CELLS/uL
same,ABSOLUTE MONOCYTE,[1],166.67 CELLS/uL
same,ABSOLUTE SEGMENTED NEUTROPHIL,[1],1090.17 CELLS/uL
same,BASOPHIL,[1],0%
same,EOSINOPHIL,[1],0.67%
same,ERYTHROCYTE COUNT,[1],5.57 x10E6/uL
same,HEMATOCRIT,[1],35.33%
same,HEMOGLOBIN,[1],13.83 G/DL
same,LEUKOCYTE COUNT,[1],13.43 x10E3/uL
same,LYMPHOCYTE,[1],89.83%
same,MEAN CORPUSCULAR HEMOGLOBIN,[1],24.88 pg
same,MEAN CORPUSCULAR HEMOGLOBIN CONCENTRATION,[1],39.15 G/DL
same,MEAN CORPUSCULAR VOLUME,[1],63.52 fL
same,MONOCYTE,[1],1.17%
same,NEUTROPHIL,[1],8.33%
same,NUCLEATED RED BLOOD CELLS,[1],0 /100WBC
same,PLATELET COUNT,[1],1181.33 x10E3/uL
same,ALANINE AMINOTRANSFERASE,[1],48.33 u/L
same,ALBUMIN,[1],4.1 G/DL
same,ALKALINE PHOSPHATASE,[1],395 u/L
same,ASPARTATE AMINOTRANSFERASE,[1],81.83 u/L
same,BLOOD UREA NITROGEN,[1],15.83 mg/dL
same,CARBON DIOXIDE,[1],24.17 mmol/L
same,CHLORIDE,[1],103.83 MEQ/L
same,CHOLESTEROL,[1],63.67 mg/dL
same,CREATINE PHOSPHOKINASE,[1],372.83 u/L
same,CREATININE,[1],0.18 mg/dL
same,GLUCOSE,[1],173.83 mg/dL
same,LACTATE DEHYDROGENASE,[1],188.33 u/L
same,LIPASE,[1],9.5 u/L
same,PHOSPHORUS,[1],11.95 mg/dL
same,POTASSIUM,[1],5.99 MEQ/L
same,SODIUM,[1],144.43 MEQ/L
same,TOTAL BILIRUBIN,[1],0.15 mg/dL
same,TOTAL PROTEIN,[1],5.95 G/DL
same,URIC ACID,[1],1.82 mg/dL
same,ABSOLUTE BASOPHIL,[2],0 CELLS/uL
same,ABSOLUTE EOSINOPHIL,[2],26.67 CELLS/uL
same,ABSOLUTE LYMPHOCYTE,[2],7583.83 CELLS/uL
same,ABSOLUTE MONOCYTE,[2],131.33 CELLS/uL
same,ABSOLUTE SEGMENTED NEUTROPHIL,[2],674.83 CELLS/uL
same,BASOPHIL,[2],0%
same,EOSINOPHIL,[2],0.33%
same,ERYTHROCYTE COUNT,[2],5.78 x10E6/uL
same,HEMATOCRIT,[2],36.48%
same,HEMOGLOBIN,[2],14.03 G/DL
same,LEUKOCYTE COUNT,[2],8.42 x10E3/uL
same,LYMPHOCYTE,[2],89.83%
same,MEAN CORPUSCULAR HEMOGLOBIN,[2],24.3 pg
same,MEAN CORPUSCULAR HEMOGLOBIN CONCENTRATION,[2],38.52 G/DL
same,MEAN CORPUSCULAR VOLUME,[2],63.15 fL
same,MONOCYTE,[2],1.67%
same,NEUTROPHIL,[2],8.17%
same,NUCLEATED RED BLOOD CELLS,[2],0 /100WBC
same,PLATELET COUNT,[2],1186.67 x10E3/uL
same,ALANINE AMINOTRANSFERASE,[2],50.17 u/L
same,ALBUMIN,[2],4.07 G/DL
same,ALKALINE PHOSPHATASE,[2],367.5 u/L
same,ASPARTATE AMINOTRANSFERASE,[2],81.67 u/L
same,BLOOD UREA NITROGEN,[2],16.17 mg/dL
same,CARBON DIOXIDE,[2],32.33 mmol/L
same,CHLORIDE,[2],101.5 MEQ/L
same,CHOLESTEROL,[2],65.33 mg/dL
same,CREATINE PHOSPHOKINASE,[2],255.33 u/L
same,CREATININE,[2],0.17 mg/dL
same,GLUCOSE,[2],139.33 mg/dL
same,LACTATE DEHYDROGENASE,[2],95 u/L
same,LIPASE,[2],10.5 u/L
same,PHOSPHORUS,[2],10.38 mg/dL
same,POTASSIUM,[2],6.11 MEQ/L
same,SODIUM,[2],145.55 MEQ/L
same,TOTAL BILIRUBIN,[2],0.17 mg/dL
same,TOTAL PROTEIN,[2],5.98 G/DL
same,URIC ACID,[2],0.93 mg/dL
same,ABSOLUTE BASOPHIL,[3],0 CELLS/uL
same,ABSOLUTE EOSINOPHIL,[3],116.33 CELLS/uL
same,ABSOLUTE LYMPHOCYTE,[3],13980 CELLS/uL
same,ABSOLUTE MONOCYTE,[3],147.67 CELLS/uL
same,ABSOLUTE SEGMENTED NEUTROPHIL,[3],1122.67 CELLS/uL
same,BASOPHIL,[3],0%
same,EOSINOPHIL,[3],0.67%
same,ERYTHROCYTE COUNT,[3],5.35 x10E6/uL
same,HEMATOCRIT,[3],33.67%
same,HEMOGLOBIN,[3],13.37 G/DL
same,LEUKOCYTE COUNT,[3],15.37 x10E3/uL
same,LYMPHOCYTE,[3],90.33%
same,MEAN CORPUSCULAR HEMOGLOBIN,[3],25 pg
same,MEAN CORPUSCULAR HEMOGLOBIN CONCENTRATION,[3],39.73 G/DL
same,MEAN CORPUSCULAR VOLUME,[3],62.97 fL
same,MONOCYTE,[3],1%
same,NEUTROPHIL,[3],8%
same,NUCLEATED RED BLOOD CELLS,[3],0 /100WBC
same,PLATELET COUNT,[3],1183 x10E3/uL
same,ALANINE AMINOTRANSFERASE,[3],54 u/L
same,ALBUMIN,[3],3.97 G/DL
same,ALKALINE PHOSPHATASE,[3],325.67 u/L
same,ASPARTATE AMINOTRANSFERASE,[3],90 u/L
same,BLOOD UREA NITROGEN,[3],18 mg/dL
same,CARBON DIOXIDE,[3],24.33 mmol/L
same,CHLORIDE,[3],103.67 MEQ/L
same,CHOLESTEROL,[3],61.33 mg/dL
same,CREATINE PHOSPHOKINASE,[3],372 u/L
same,CREATININE,[3],0.12 mg/dL
same,GLUCOSE,[3],163.33 mg/dL
same,LACTATE DEHYDROGENASE,[3],339 u/L
same,LIPASE,[3],8.67 u/L
same,PHOSPHORUS,[3],11.87 mg/dL
same,POTASSIUM,[3],5.76 MEQ/L
same,SODIUM,[3],143.73 MEQ/L
same,TOTAL BILIRUBIN,[3],0.2 mg/dL
same,TOTAL PROTEIN,[3],5.77 G/DL
same,URIC ACID,[3],1.13 mg/dL
